Data published in patent US20260216166A1, “COMPOUND FOR TREATMENT OF ERECTILE DYSFUNCTION” (Initiator Pharma A/S, priority 2023, published 2026).
“Also recorded” adds a separate entry of the source.

Experiments:
[1] = system: male subjects with erectile dysfunction (ED); experiment: IIEF-15 questionnaire after repeat single oral doses in male subjects with ED; assay type: in vivo, human
From the text: The international index of erectile function (IIEF-15) questionnaire is a validated, multi-dimensional, self-administered investigation that has been found useful in the clinical assessment of erectile dysfunction and treatment outcomes in clinical trials. A score of 0-5 is awarded to each of the 15 questions that examine the main domains of male sexual function: erectile function, orgasmic function, sexual desire and intercourse satisfaction.
130 subjects were divided into 3 groups upon which the study was conducted in parallel. Each subject was dosed on four occasions with either 5 mg IP2015, 10 mg IP2015 or matched placebo. In each group, subjects were randomised evenly to each of the three study treatments and received the same treatment at each visit.
The study lasted approximately 8 weeks and consisted of the following: • A screening visit (up to 21 days prior to the baseline visit) • A baseline visit (Day −7). • Outpatient visits on Week 1 (Day 1), Week 2, Week 3 and Week 4 • A follow-up visit a minimum of 7 to 10 days after their final dose.
On Day-7, and at the Week 1 (Day 1), Week 2, Week 3, Week 4 and Follow-up visits, all groups were asked to complete the IIEF-15 questionnaire. Group 2 was asked to complete a Visual Stimulation Assessment using a RigiScan Plus Monitor on Day-7, Week 1 (Day 1) and Week 4. Group 2 was also required to provide blood samples for pharmacokinetic assessment on Week 1 (Day 1) and Week 4. Group 3 was required to provide semen samples on Day-7 and Week 4.
There were three potential study treatments of 5 mg IP2015, 10 mg IP2015 or matched placebo. In each group, subjects were randomised evenly to each of the three study treatments and received the same treatment on each visit. IP2015 or matched placebo was administered once in the morning of Week 1 (Day 1), Week 2, Week 3, and Week 4 as an oral solution in the fasted state. The dose was taken with 240 ml of water at room temperature. Subjects had fasted 2 hours prior to dosing until 4 hours postdose. Water was allowed ad libitum except for 1 hour before and 1 hour after dosing.
Efficacy was assessed through the International Index of Erectile Function (IIEF)-15 questionnaire. The change from baseline in responses to questions of the IIEF-15 questionnaire, including questions regarding erectile function, orgasmic function, sexual desire, intercourse satisfaction and overall satisfaction domain scores, was determined at different time points of the study. RigiScan assessments during the stimulus assessment, and sperm count and motility by semen sample collection was used for efficacy evaluation. Safety was assessed through AE reporting, 12-lead ECG, vital signs, physical examinations and clinical laboratory evaluations. Pharmacokinetics was assessed by blood sampling.
The results are means±SE. The statistical differences were performed with Mixed Model Repeated Measures (MMRM).

healthy male subjects = experiment: Phase I ascending single oral dose safety and tolerability in healthy male subjects; assay type: in vivo, human
Method: The study was a Phase I, randomised, double-blind, placebo-controlled, ascending single oral dose, safety, tolerability, pharmacokinetic (PK) and pharmacodynamics (PD) study of IP2015 in healthy male subjects.
Each subject received one oral dose of IP2015 or matched placebo. The starting dose of IP2015 was 0.01 mg in Cohort 1. The dose level was to be escalated to a maximum of 0.05 mg in Cohort 2 and a maximum of 0.2 mg in Cohort 3. The doses in the remaining five cohorts were to be determined based on the dose escalation criteria. In every cohort, no more than 2 subjects were dosed on the first dosing day (1 active; 1 placebo) such that no more than 1 subject received an active IP2015 dose for the first time at each dose level.
The doses used in each cohort were as follows: • Cohort 1-0.01 mg • Cohort 2-0.05 mg • Cohort 3-0.2 mg • Cohort 4-0.6 mg • Cohort 5-1.8 mg • Cohort 6-5.4 mg • Cohort 7-16.2 mg • Cohort 8-10 mg
The study evaluated the clinical safety data from adverse event (AE) reporting, 12-lead electrocardiogram (ECG), cardiac telemetry, vital signs (standing and supine blood pressure (BP), heart rate (HR), oral temperature and clinical laboratory evaluations (chemistry, haematology, urinalysis) and physical examinations in healthy male subjects.
Safety parameters were listed and summarised using descriptive statistics. Pharmacokinetic parameter estimates were calculated using noncompartmental methods. Pharmacokinetic data were listed for each subject/patient and summarised by descriptive statistics.

COc1cc2ccc(OC3CC4CCC(C3)N4)cc2oc1=O (stereo not drawn) [IP2015, 7-[(8-azabicyclo[3.2.1]octan-3-yl)oxy]-3-methoxy-chromen-2-one]
efficacy in treating erectile dysfunction ([1]; 5 mg individual doses, human subjects, compared to placebo): effective in the treatment of erectile dysfunction; also recorded: effective in treating erectile dysfunction
overall response to questions of IIEF-15 versus baseline ([1]; 5 mg, at follow-up, p=0.0046): significant
overall response to questions of IIEF-15 versus placebo ([1]; 5 mg, at follow-up, p=0.07): tendency
IIEF-15 overall score versus baseline ([1]; 5 mg, p=0.0032): the same was the case
IIEF-15 Q4 (ability to maintain erection), overall score versus baseline ([1]; 5 mg, p=0.056): tendency to difference
IIEF-15 overall score versus placebo ([1]; 5 mg, p=0.10): tendency
IIEF-15 Q4, overall score compared to placebo ([1]; 5 mg, p=0.44): no difference
IIEF-15 Q3, overall score ([1]; 5 mg, versus placebo (p=0.07) and versus baseline (p=0.07)): tendency to difference
IIEF-15 Q3 (ability to penetrate), change from baseline ([1]; 5 mg, week 3, versus placebo (p=0.034) and versus baseline (p=0.046)): significant effect
overall IIEF-15 score change ([1]; low dose of IP2015, clinically significant): 2
incidence of TEAEs (healthy male subjects; 0.01 mg to 10 mg dose range): lower incidence of treatment-emergent adverse effects (TEAEs) compared to higher doses; also recorded: relatively low; also recorded: lower side effects than doses of 16.2 mg
mean ECG parameters (healthy male subjects; 0.01 mg to 10 mg dose range): no significant treatment- or dose-related trends
vital sign values (healthy male subjects; 0.01 mg to 10 mg dose range): no significant treatment- or dose-related trends
subjects with sustained tachycardia for several hours (healthy male subjects; 16.2 mg): 2
incidence of side effects (healthy male subjects; 16.2 mg compared to 0.01 mg to 10 mg): increased at 16.2 mg compared to the 0.01 mg to 10 mg dose range
subjects reporting at least one TEAE (healthy male subjects; 16.2 mg dose group (all subjects)): 4
standing pulse rate (healthy male subjects; 16.2 mg, 2, 3, 4, 6, 8, 10 and 12 hours postdose): increases from baseline
supine pulse rate (healthy male subjects; 16.2 mg, 6, 8 and 10 hours postdose): increases from baseline
heart rate (ECG) (healthy male subjects; 16.2 mg, 8 and 12 hours postdose): increases from baseline
haematology, serum biochemistry or urinalysis data (healthy male subjects; healthy males, single oral doses): no significant treatment- or dose-related trends
total TEAEs (healthy male subjects; in the 40 subjects who received IP2015, 0.01-16.2 mg): 32
subjects experiencing TEAEs (healthy male subjects; of the 40 subjects who received IP2015, 0.01-16.2 mg): 16
discontinuation due to a TEAE (healthy male subjects; whole Phase I study): no subjects discontinued due to a TEAE
severity of TEAEs (healthy male subjects; whole Phase I study): majority of events were mild in severity
